Source: patent US12398107B2, “Fungicidal nitroanilino substituted pyrazoles” (FMC Corporation, priority 2018, dated 2025)

Experiments:
Assay type in all cases: in vivo
[1] = system: Blumeria graminis f. sp. tritici; assay: Test C: wheat powdery mildew, preventive spray on wheat seedlings; conditions: 50 ppm, rated after 8 days, 100 = 100% disease control, 0 = no control
Method in brief: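 Compound dissolved in acetone (3% of final volume), then suspended in 50/50 acetone/water with 250 ppm PEG400 and sprayed to run-off on wheat seedlings. Inoculated next day with B. graminis f. sp. tritici spore dust, kept 8 days at 20° C; visual rating, 100 = full control, 0 = none, relative to controls.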

Botrytis cinerea = assay: Test E: tomato Botrytis, preventive spray on tomato seedlings; conditions: 50 ppm, 100 = 100% disease control, 0 = no control
Method in brief: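 Tomato seedlings sprayed to run-off with compound (ppm) in acetone/water with 250 ppm PEG400, then inoculated next day with B. cinerea spores. Held 48 h at 20 °C in saturated atmosphere, then 3 days at 24 °C. Visual rating 0–100% disease control relative to untreated controls.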

Phakopsora pachyrhizi = assay: Test D: Asian soybean rust, preventive spray on soybean seedlings; conditions: 50 ppm, 100 = 100% disease control, 0 = no control
Method in brief: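 Soybean seedlings sprayed to run-off with compound suspension (ppm, in 50/50 acetone/water with 250 ppm PEG400), inoculated next day with P. pachyrhizi spores, held 24 h saturated at 22°C then 8 days at 22°C. Visual rating 0-100% disease control relative to controls.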

[2] = system: Puccinia recondita f. sp. tritici; assay: Test B: wheat leaf rust, preventive spray on wheat seedlings; conditions: 50 ppm, 100 = 100% disease control, 0 = no control relative to controls
Method in brief: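 Compounds in acetone/water (50/50) with 250 ppm PEG400, sprayed to run-off on wheat seedlings at stated ppm; inoculated next day with P. recondita spores. Held 24 h saturated at 20° C., then 7 days in growth chamber at 20° C.; rating 0–100 = % disease control vs controls.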

Alternaria solani = assay: Test F: tomato early blight, preventive spray on tomato seedlings; conditions: 50 ppm, 100 = 100% disease control, 0 = no control
Method in brief: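 Compounds in acetone/water (50/50) with 250 ppm PEG400, dosed in ppm, sprayed to run-off on tomato seedlings; next day inoculated with A. solani spores. Held 48 h saturated at 27° C, then 3 days at 20° C; visual rating 0–100% disease control relative to controls.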

Septoria tritici = assay: Test A: wheat leaf blotch, preventive spray on wheat seedlings; conditions: 50 ppm, 100 = 100% disease control, 0 = no control relative to controls
Method in brief: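 Compounds were suspended in acetone/water (50/50) with 250 ppm PEG400 and sprayed to run-off on wheat seedlings. The next day the seedlings were inoculated with Septoria tritici spores, held 48 h at 24 °C in saturated humidity, then 17 days at 20 °C. Disease control was rated 0–100 relative to controls.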

Row | Structure (SMILES) | Test C disease control rating (wheat powdery mildew) [1] | Test E disease control rating (tomato Botrytis) (Botrytis cinerea) | Test D disease control rating (Asian soybean rust) (Phakopsora pachyrhizi) | Test B disease control rating (wheat leaf rust) [2] | Test F disease control rating (tomato early blight) (Alternaria solani) | Test A disease control rating (wheat leaf blotch) (Septoria tritici) | pest or weed control at 50 ppm ([1]; Blumeria graminis, 192 h, read-out: Test C disease control rating (wheat powdery mildew)) | pest or weed control at 50 ppm (Botrytis cinerea; Botrytis cinerea, read-out: Test E disease control rating (tomato Botrytis)) | pest or weed control at 50 ppm (Phakopsora pachyrhizi; Phakopsora pachyrhizi, read-out: Test D disease control rating (Asian soybean rust)) | pest or weed control at 50 ppm ([2]; read-out: Test B disease control rating (wheat leaf rust)) | pest or weed control at 50 ppm (Alternaria solani; Alternaria solani, read-out: Test F disease control rating (tomato early blight)) | pest or weed control at 50 ppm (Septoria tritici; Zymoseptoria tritici, read-out: Test A disease control rating (wheat leaf blotch))
1 | Cc1nn(C)c(Nc2c(Cl)cc(Br)cc2[N+](=O)[O-])c1-c1ccc(F)cc1Cl [Compound 8] | 92% | 99% | 73% | 99% | 73% | 99% |  |  |  |  |  | 
2 | Cc1cc(F)c(Nc2c(-c3ccc(F)cc3Br)c(C)nn2C)c([N+](=O)[O-])c1 [Compound 40] | 100% | 98% | 82% | 100% | 100% | 100% |  |  |  |  |  | 
3 | Cc1nn(C)c(Nc2c(F)cc(Cl)cc2[N+](=O)[O-])c1-c1ccc(Cl)cc1Cl [Compound 11] | 97% | 98% | 0% | 98% | 99% | 100% |  |  |  |  |  | 
4 | CCc1nn(C)c(Nc2ccc(OC)cc2[N+](=O)[O-])c1-c1ccc(F)cc1F [Compound 45] | 95% | 99% | 0% | 86% | 33% | 100% |  |  |  |  |  | 
5 | Cc1nn(C)c(Nc2c(F)cccc2[N+](=O)[O-])c1-c1c(F)cc(Cl)cc1F [Compound 151] | 99% | 99% | 0% | 100% | 99% | 100% |  |  |  |  |  | 
6 | COc1ccc(-c2c(C)nn(C)c2Nc2c(Cl)cc(F)cc2[N+](=O)[O-])c(Cl)c1 [Compound 73, N-(2-chloro-4-fluoro-6-nitrophenyl)-4-(2-chloro-4-methoxyphenyl)-1,3-dimethyl-1H-pyrazol-5-amine] |  |  |  |  |  |  | 96% | 99% | 98% | 100% | 97% | 100%
7 | COc1ccc(Nc2c(-c3ccc(C#N)cc3Cl)c(C)nn2C)c([N+](=O)[O-])c1 [Compound 124] | 99% | 100% | 25% | 100% | 99% | 100% |  |  |  |  |  | 
8 | COc1ccc(Nc2c(-c3c(F)cc(C#N)cc3F)c(C)nn2C)c([N+](=O)[O-])c1 [Compound 150] | 98% | 100% | 13% | 100% | 99% | 100% |  |  |  |  |  | 
9 | COc1ccc(-c2c(C)nn(C)c2Nc2c(Cl)cccc2[N+](=O)[O-])c(Cl)c1 [Compound 184] | 21% | 100% | 0% | 100% | 26% | 100% |  |  |  |  |  | 
10 | COc1cc(F)c(-c2c(C)nn(C)c2Nc2c(Cl)cc(F)cc2[N+](=O)[O-])c(F)c1 [Compound 2] | 99% | 99% | 94% | 100% | 61% | 100% |  |  |  |  |  | 
11 | Cc1nn(C)c(Nc2c(F)cc(F)cc2[N+](=O)[O-])c1-c1ccc(C#N)cc1Cl [Compound 120] | 89% | 100% | 44% | 100% | 99% | 100% |  |  |  |  |  | 
12 | COc1ccc(Nc2c(-c3c(F)cc(F)cc3F)c(C)nn2C)c([N+](=O)[O-])c1 [Compound 159] | 100% | 99% | 13% | 100% | 99% | 100% |  |  |  |  |  | 
13 | Cc1cccc([N+](=O)[O-])c1Nc1c(-c2c(F)cc(F)cc2F)c(C)nn1C [Compound 167] | 98% | 95% | 65% | 100% | 98% | 100% |  |  |  |  |  | 
14 | Cc1nn(C)c(Nc2ccc(Br)cc2[N+](=O)[O-])c1-c1ccc(F)cc1Br [Compound 21] | 84% | 95% | 0% | 86% | 17% | 100% |  |  |  |  |  | 
15 | COc1ccc(-c2c(C)nn(C)c2Nc2c(F)cc(F)cc2[N+](=O)[O-])c(Cl)c1 [Compound 64] | 98% | 98% | 97% | 100% | 99% | 100% |  |  |  |  |  | 
16 | CCc1nn(C)c(Nc2c(Cl)cc(C)cc2[N+](=O)[O-])c1-c1ccc(F)cc1F [Compound 16] | 98% | 99% | 50% | 99% | 0% | 100% |  |  |  |  |  | 
17 | Cc1nn(C)c(Nc2ccc(Cl)cc2[N+](=O)[O-])c1-c1ccc(F)cc1Cl [Compound 92] | 89% | 100% | 0% | 96% | 79% | 100% |  |  |  |  |  | 
18 | COc1ccc(-c2c(C)nn(C)c2Nc2c(F)cccc2[N+](=O)[O-])c(C)c1 [Compound 48] | 89% | 97% | 0% | 95% | 97% | 100% |  |  |  |  |  | 
19 | Cc1nn(C)c(Nc2c(Cl)cc(Br)cc2[N+](=O)[O-])c1-c1ccc(F)cc1F [Compound 55] | 90% | 34% | 0% | 99% | 0% | 100% |  |  |  |  |  | 
20 | Cc1nn(C)c(Nc2c(Cl)cc(Cl)cc2[N+](=O)[O-])c1-c1ccc(F)cc1Br [Compound 37] | 98% | 88% | 0% | 100% | 78% | 100% |  |  |  |  |  | 
21 | Cc1cc(Cl)c(Nc2c(-c3ccc(F)cc3Br)c(C)nn2C)c([N+](=O)[O-])c1 [Compound 181] | 99% | 99% | 78% | 100% | 99% | 100% |  |  |  |  |  | 
